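Five compound concentrations were applied to cells in 96-well plates for 48 hours; endpoints were derived by simple linear interpolation of the resulting dose-response curve. The concentration for full growth arrest is given as TGI.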

Here are results for eleven compounds from PubChem BioAssay (NCI).

Test systems include MDA-MB-231 breast; SK-MEL-5 melanoma; SNB-75 CNS; TK-10 renal; NCI-H522 lung; ACHN renal; MCF7 breast; K-562 leukemia; SW-620 colon; SK-OV-3 ovarian; HL-60(TB) leukemia; COLO 205 colon; OVCAR-3 ovarian; T-47D breast; RPMI-8226 leukemia.
Experiment in all cases: NCI-60 cell line screen, 48 h

`O=c1[nH]c(Nc2nc3ccccc3[nH]2)nc2c1CCC2`: the TGI in the assay on MDA-MB-231 breast was 51.1 µM; in the assay with SK-MEL-5 melanoma it was > 100 µM; with SNB-75 CNS, 77.8 µM; in the assay on TK-10 renal it was > 100 µM; in the assay on NCI-H522 lung, > 100 µM; in the assay on ACHN renal, > 100 µM. Also, the TGI with MCF7 breast, in the assay with K-562 leukemia, in the assay on SW-620 colon, with SK-OV-3 ovarian, in the assay on HL-60(TB) leukemia and in the assay on COLO 205 colon was > 100 µM throughout. Moreover, the TGI with OVCAR-3 ovarian was > 100 µM.

For the compound `CC(=O)OCCOCn1cnc2c(Cl)nc(Cl)nc21`, the TGI with MDA-MB-231 breast was 29 µM; in the assay on SK-MEL-5 melanoma, 33 µM; with T-47D breast, 25.6 µM; in the assay with SNB-75 CNS, 51.7 µM; with TK-10 renal, > 100 µM; with NCI-H522 lung it was 4.07 µM. The TGI is 30.6 µM with ACHN renal; 5.43 µM in the assay on K-562 leukemia; 30.7 µM with SW-620 colon; 6.21 µM in the assay with HL-60(TB) leukemia; 33.5 µM in the assay on RPMI-8226 leukemia; 38.1 µM in the assay with COLO 205 colon. Besides, the TGI with OVCAR-3 ovarian is 27.2 µM.

With `COC(=O)C(=Cc1cc(OC)c(OC)c(OC)c1-c1cc2c(cc1C(C)=O)OCO2)C(=O)OC`, the TGI in the assay on SK-MEL-5 melanoma is 70.1 µM; with TK-10 renal, 187 µM; with NCI-H522 lung it was 62.2 µM; in the assay with ACHN renal, 100 µM; in the assay with K-562 leukemia it was > 211 µM; in the assay on SW-620 colon it was 102 µM. Moreover, the TGI in the assay on SK-OV-3 ovarian is > 211 µM; in the assay with HL-60(TB) leukemia it was 172 µM; with RPMI-8226 leukemia it was > 211 µM; in the assay on COLO 205 colon it was 66.8 µM; in the assay on OVCAR-3 ovarian, 56.2 µM.

`O=C(Nc1ccc(Cl)cc1Cl)C(=O)C(C(=O)c1ccncc1)C1OC(=O)c2ccccc21` (configuration not stated): the TGI in the assay on SK-MEL-5 melanoma, in the assay on SNB-75 CNS, in the assay on TK-10 renal, in the assay with NCI-H522 lung, in the assay with ACHN renal and with K-562 leukemia was > 100 µM each time. The TGI in the assay with SW-620 colon, with SK-OV-3 ovarian, in the assay on HL-60(TB) leukemia, with RPMI-8226 leukemia, in the assay with COLO 205 colon and in the assay with OVCAR-3 ovarian was > 100 µM in each case.

Regarding `C=C1CCC23CC(CC[C@@H]2[C@@]12C[C@@H](c1ccoc1)OC2=O)OC3=O` (some centres not stated), the TGI with SK-MEL-5 melanoma, in the assay on TK-10 renal, with NCI-H522 lung, in the assay with ACHN renal, with K-562 leukemia and in the assay on SW-620 colon was > 100 µM throughout. In addition, the TGI in the assay with SK-OV-3 ovarian, in the assay with HL-60(TB) leukemia, in the assay on RPMI-8226 leukemia, in the assay with COLO 205 colon and with OVCAR-3 ovarian was > 100 µM throughout.

Turning to `CSC1=N/C(=C\c2ccccc2)C(=O)N1CN1CCCCC1`, the TGI in the assay on MDA-MB-231 breast, with SK-MEL-5 melanoma, with SNB-75 CNS, with TK-10 renal, in the assay on NCI-H522 lung and in the assay with ACHN renal was > 100 µM in each case. In addition, the TGI in the assay with MCF7 breast, with K-562 leukemia, in the assay with SW-620 colon, in the assay with SK-OV-3 ovarian, in the assay with RPMI-8226 leukemia and in the assay on COLO 205 colon was > 100 µM in each case. The TGI in the assay with OVCAR-3 ovarian was > 100 µM.

Consider `C=C(CC[C@@H](C)[C@H]1CC[C@@]2(C)C3=C(CC[C@]12C)[C@@]1(C)CC[C@H](O)[C@@H](C)C1CC3)C(C)C` (some centres not stated), for which the TGI with MDA-MB-231 breast was determined as 2.74 µM; in the assay with SK-MEL-5 melanoma, 2.55 µM; in the assay on SNB-75 CNS, 2.49 µM; in the assay with TK-10 renal it was 2.56 µM; in the assay with ACHN renal, 2.55 µM; in the assay on MCF7 breast, 2.69 µM. Besides, the TGI in the assay with K-562 leukemia is 1.18 µM; in the assay with SW-620 colon, 3.44 µM; with SK-OV-3 ovarian, 2.79 µM; with HL-60(TB) leukemia, 8.32 µM; in the assay on COLO 205 colon, 2.41 µM; with OVCAR-3 ovarian, 3.59 µM.

Take `CC(C)=CC(=O)C[C@H]1C(=O)O[C@@H]2C[C@H]3C(C)=CC(=O)[C@@H](O)[C@]3(C)[C@H]3[C@@]4(O)OC[C@]32[C@@H]1[C@@H](C)[C@H]4O`: the TGI in the assay on MDA-MB-231 breast worked out at 0.381 µM; with SK-MEL-5 melanoma, 0.0612 µM; with T-47D breast, 0.144 µM; in the assay with SNB-75 CNS, 0.103 µM; in the assay on TK-10 renal it was 0.512 µM; with ACHN renal, 0.834 µM. The TGI in the assay on K-562 leukemia was 1.3 µM; with SW-620 colon, 6.26 µM; in the assay with SK-OV-3 ovarian, 4.98 µM; in the assay with HL-60(TB) leukemia, > 100 µM; in the assay on RPMI-8226 leukemia it was 0.0447 µM; in the assay on OVCAR-3 ovarian, 0.166 µM.

On to `COc1cccc(/C=C2\C(=O)N(C(=O)c3ccc(NC(C)=O)cc3)N=C2C)c1`, for which the TGI in the assay on SK-MEL-5 melanoma, with SNB-75 CNS, in the assay on TK-10 renal, in the assay with NCI-H522 lung, in the assay with ACHN renal and with K-562 leukemia was > 100 µM in each case. In addition, the TGI in the assay on SW-620 colon, in the assay on COLO 205 colon and in the assay on OVCAR-3 ovarian was > 100 µM throughout.

As to `N#Cc1c(-c2ccccc2)cc(Nc2cccc(C(F)(F)F)c2)n2c1nc1ccccc12`, the TGI with MDA-MB-231 breast is 9.85 µM; in the assay with SK-MEL-5 melanoma, 1.78 µM; with T-47D breast it was 21.1 µM; in the assay on SNB-75 CNS, 9.53 µM; in the assay with TK-10 renal it was 17.8 µM; in the assay on NCI-H522 lung, 1.37 µM. For the same compound, the TGI turned out to be 11.1 µM in the assay with ACHN renal; 14.2 µM in the assay on SW-620 colon; 8.73 µM with SK-OV-3 ovarian; 6.74 µM with RPMI-8226 leukemia; 2.39 µM with COLO 205 colon; 5.58 µM in the assay on OVCAR-3 ovarian.

Regarding `CCOC(=O)C1(C(=O)OCC)C[C@H](C)[C@](C)(O)C1`, the TGI in the assay on MDA-MB-231 breast, with SK-MEL-5 melanoma, in the assay on SNB-75 CNS, in the assay on TK-10 renal, with NCI-H522 lung and in the assay with ACHN renal was > 100 µM in each case. Moreover, the TGI in the assay with MCF7 breast, in the assay with K-562 leukemia, in the assay on SW-620 colon, in the assay on SK-OV-3 ovarian, with HL-60(TB) leukemia and with RPMI-8226 leukemia was > 100 µM each time. The TGI with COLO 205 colon and in the assay on OVCAR-3 ovarian was > 100 µM each time.
